Data on seven molecules can be found in paper PMC8958325 (iScience, 2022).

For one assay, the system named is HeLa cells. The assay can be described thus: Cell survival. It counts as cell-based. The conditions noted are these: Homo sapiens, 24 h, read-out: IC50 (μM) for cell survival.
The target in assay [1] is Rad18 (Homo sapiens, UniProt P63146). The assay can be described thus: biochemical. The note with it: for inhibition of Rad18 autoubiquitination: Alpha assay. It counts as biochemical.
The target of a further assay is Rad6–Rad18 interaction (Homo sapiens, UniProt P63146). Description: Rad6–Rad18 interaction Alpha assay. The conditions noted are these: for disruption of the Rad6–Rad18 interaction: Alpha assay. The assay is classed as binding.
Sequence of Rad6–Rad18 interaction (P63146 whole entry): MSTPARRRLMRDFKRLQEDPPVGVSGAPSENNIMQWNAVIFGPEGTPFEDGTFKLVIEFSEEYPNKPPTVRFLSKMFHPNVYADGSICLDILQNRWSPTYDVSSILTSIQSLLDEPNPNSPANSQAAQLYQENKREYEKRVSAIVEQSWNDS
Another assay has as its system PCNA ubiquitination. Description: Alpha assay for overall PCNA ubiquitination. The note with it: for IC50: read-out: IC50 PCNA–Ub, SE and 95% CI in cell. The assay is classed as biochemical, human.
The next assay addresses Rad6–Ubr1 interaction (Homo sapiens, UniProt P63146). Description: Rad6–Ubr1 interaction Alpha assay. The assay is classed as binding.
A further assay concerns the target Mms2–Ubc13 (Homo sapiens, UniProt P61088+Q15819). Description: Mms2–Ubc13∼ubiquitin thioester formation gel-based assay. The conditions noted are these: at 100 μM, silver-stained gel. It counts as biochemical.
A further assay has as its target T1, Uba1 (Homo sapiens, UniProt P22314).
T1 sequence (P22314 1-1058): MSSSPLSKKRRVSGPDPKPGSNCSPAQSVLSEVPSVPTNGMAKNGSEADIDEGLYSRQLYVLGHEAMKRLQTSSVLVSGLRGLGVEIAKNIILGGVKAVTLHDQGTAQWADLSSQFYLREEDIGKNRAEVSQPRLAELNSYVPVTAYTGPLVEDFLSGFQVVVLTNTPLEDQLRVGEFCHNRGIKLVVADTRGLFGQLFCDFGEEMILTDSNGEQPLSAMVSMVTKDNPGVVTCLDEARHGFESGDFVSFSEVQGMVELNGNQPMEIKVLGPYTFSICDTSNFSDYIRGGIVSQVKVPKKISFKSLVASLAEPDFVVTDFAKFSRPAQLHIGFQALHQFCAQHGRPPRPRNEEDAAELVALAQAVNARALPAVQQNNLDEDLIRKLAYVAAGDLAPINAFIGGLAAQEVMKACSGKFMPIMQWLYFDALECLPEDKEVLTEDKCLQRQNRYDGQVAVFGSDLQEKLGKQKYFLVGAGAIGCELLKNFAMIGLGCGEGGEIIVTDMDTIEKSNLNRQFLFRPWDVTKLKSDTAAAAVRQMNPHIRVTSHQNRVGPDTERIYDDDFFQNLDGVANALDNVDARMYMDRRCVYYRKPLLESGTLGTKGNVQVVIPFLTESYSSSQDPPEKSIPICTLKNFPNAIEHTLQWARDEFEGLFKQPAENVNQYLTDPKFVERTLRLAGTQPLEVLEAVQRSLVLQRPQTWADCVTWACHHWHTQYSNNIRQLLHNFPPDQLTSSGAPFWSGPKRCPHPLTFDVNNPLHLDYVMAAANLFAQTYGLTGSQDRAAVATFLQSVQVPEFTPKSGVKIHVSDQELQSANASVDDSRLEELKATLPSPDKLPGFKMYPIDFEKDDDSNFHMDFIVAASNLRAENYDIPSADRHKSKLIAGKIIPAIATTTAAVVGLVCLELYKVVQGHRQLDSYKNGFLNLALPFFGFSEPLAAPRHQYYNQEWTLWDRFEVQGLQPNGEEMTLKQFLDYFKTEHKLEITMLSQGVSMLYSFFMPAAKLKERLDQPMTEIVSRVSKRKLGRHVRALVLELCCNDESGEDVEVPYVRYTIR
The assay can be described thus: Uba1∼ubiquitin thioester formation Alpha assay. It counts as biochemical. The note with it: for inhibition of Uba1∼ubiquitin thioester formation: Alpha assay.

Assay [2] concerns the target T2, Rad6 (Homo sapiens, UniProt P63146). Description: biochemical. It counts as biochemical. The note with it: for inhibition of formation of the Rad6∼ubiquitin thioester conjugate: Alpha assay.
Assay [3] has as its target Rad18 (Homo sapiens, UniProt Q9NS91). The assay can be described thus: Microscale thermophoresis, binding to GFP-Rad18. The note with it: low concentrations used for the Rad6-binding study.
The target of assay [4] is T2, Rad6. Description: Microscale thermophoresis, binding to GFP-Rad6. (MST reads how a fluorescent partner responds to local heating, with and without ligand.)

T2 sequence (P63146 whole entry): as the sequence (P63146 whole entry) above
Sequence of Rad18 (Homo sapiens, UniProt P63146) (P63146 whole entry): as the sequence (P63146 whole entry) above
Sequence of Mms2–Ubc13 (P61088 whole entry): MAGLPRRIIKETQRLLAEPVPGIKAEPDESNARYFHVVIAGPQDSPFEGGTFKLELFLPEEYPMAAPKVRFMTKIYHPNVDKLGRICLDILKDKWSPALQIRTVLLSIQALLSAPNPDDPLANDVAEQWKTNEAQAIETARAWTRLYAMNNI
Sequence of Mms2–Ubc13 (Q15819 whole entry): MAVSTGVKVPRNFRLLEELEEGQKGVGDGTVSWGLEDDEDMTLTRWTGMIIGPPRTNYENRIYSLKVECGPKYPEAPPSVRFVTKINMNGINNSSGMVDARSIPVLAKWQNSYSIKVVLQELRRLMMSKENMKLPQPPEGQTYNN
Sequence of Rad6–Ubr1 interaction (P63146 whole entry): as the sequence (P63146 whole entry) above
Sequence of Rad18 (Homo sapiens, UniProt Q9NS91) (Q9NS91 whole entry): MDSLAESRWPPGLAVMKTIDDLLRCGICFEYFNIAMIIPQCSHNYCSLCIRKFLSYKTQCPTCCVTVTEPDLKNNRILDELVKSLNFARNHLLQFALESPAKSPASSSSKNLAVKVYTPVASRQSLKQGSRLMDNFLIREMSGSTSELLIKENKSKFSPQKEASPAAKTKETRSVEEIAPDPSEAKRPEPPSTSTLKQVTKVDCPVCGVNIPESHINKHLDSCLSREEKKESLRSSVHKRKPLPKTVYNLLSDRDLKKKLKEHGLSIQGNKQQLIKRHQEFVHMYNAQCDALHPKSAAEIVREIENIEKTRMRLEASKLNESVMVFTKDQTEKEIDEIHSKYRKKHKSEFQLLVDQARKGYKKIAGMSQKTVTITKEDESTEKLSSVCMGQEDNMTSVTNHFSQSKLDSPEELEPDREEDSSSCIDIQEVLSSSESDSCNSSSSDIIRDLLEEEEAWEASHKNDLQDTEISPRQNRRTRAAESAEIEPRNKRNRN

As usually defined, the IC50 is the concentration that inhibits the measured activity by half. `CN(C)c1ccc(-c2c3cc(O)c(=O)cc-3oc3cc(O)c(O)cc23)cc1` [NSC 80693, 9-[4-(dimethylamino)phenyl]-2,6,7-trihydroxy-3H-xanthen-3-one]: the IC50 with HeLa cells was 7.67 µM; on Rad18 [1] it was 13.2 µM; against Rad6–Rad18 interaction, 14.6 µM; in the assay on PCNA ubiquitination it was 4.28 µM; against Uba1 it was > 100 µM; against Rad6 [2], 91.8 µM. The “inhibition of Rad18 autoubiquitination” value on Rad18 [1] is given as “inhibit”. For the same molecule, at Rad6–Rad18 interaction, the “disruption of the Rad6–Rad18 interaction” value is reported as “disrupt”. In addition, the “Rad6–Ubr1 inhibition by Alpha” value at Rad6–Ubr1 interaction (at 50 μM) is listed as “Little inhibition by Alpha at 50 μM”. Besides, the “Mms2–Ubc13∼Ub inhibition on gel” value on Mms2–Ubc13 is recorded as “No inhibition on gel at 100 μM”. In addition, the “inhibition of formation of the Rad6∼ubiquitin thioester conjugate” value on Rad6 [2] is on record as “inhibit”.

In general, Kd refers to the concentration at which binding is half-saturated. Turning to `O=c1cc2oc3cc(O)c(O)cc3c(-c3ccccc3O)c-2cc1O` [NSC 9037, 2,6,7-trihydroxy-9-(2-hydroxyphenyl)-3H-xanthen-3-one], the IC50 was 62.2 µM with HeLa cells; 4.46 µM against Rad18 [1]; 6.19 µM on Rad6–Rad18 interaction; 4.54 µM in the assay with PCNA ubiquitination; > 50 µM at Rad6–Ubr1 interaction; > 100 µM at Uba1. Moreover, the IC50 against Rad6 [2] was 8.9 µM. Besides, on Rad18 [1], the “inhibition of Rad18 autoubiquitination” value was “inhibit”. For the same molecule, the “disruption of the Rad6–Rad18 interaction” value at Rad6–Rad18 interaction is recorded as “disrupt”. Also, the “binding to Rad18” value on Rad18 [3] was “very weak binding”. Moreover, at Mms2–Ubc13, the “Mms2–Ubc13∼Ub inhibition on gel” value is given as “No inhibition on gel at 100 μM”. Further, the affinity on Rad6 [4], expressed as Kd, was 3.79 ± 2.94 µM. For the same molecule, on Rad6 [2], the “inhibition of formation of the Rad6∼ubiquitin thioester conjugate” value is recorded as “inhibit”.

Regarding `COc1ccc(C2c3cc(O)c(OC)cc3Oc3cc(OC)c(O)cc32)cc1` [NSC 348718, 3,6-dimethoxy-9-(4-methoxyphenyl)-9H-xanthene-2,7-diol], the IC50 in the assay on HeLa cells was 27.7 µM; with PCNA ubiquitination, > 100 µM; against Uba1, > 100 µM. Further, the “effect on PCNA ubiquitination” value in the assay on PCNA ubiquitination (Figure 3G) was “inactive”. The “Mms2–Ubc13∼Ub inhibition on gel” value at Mms2–Ubc13 is listed as “No inhibition on gel at 100 μM”.

As for `Cc1cc2c(-c3ccccc3)c3cc(C)c(N)cc3nc2cc1N` [NSC 71947, 2,7-dimethyl-9-phenylacridine-3,6-diamine], the values for the 50% inhibitory concentration (IC50) in the assay with HeLa cells, in the assay with PCNA ubiquitination and on Uba1 were 11.8 µM, 24.9 µM and > 100 µM, respectively. Further, the “Mms2–Ubc13∼Ub inhibition on gel” value at Mms2–Ubc13 is reported as “No inhibition on gel at 100 μM”.

In the case of `O=C(O)c1cccc(-c2c3ccc(=O)cc-3oc3cc(O)ccc23)c1` [NSC 119888, 3-(3-hydroxy-6-oxoxanthen-9-yl)benzoic acid], in the assay on HeLa cells, the IC50 stood at 75.3 µM. The “Mms2–Ubc13∼Ub inhibition on gel” value at Mms2–Ubc13 is on record as “No inhibition on gel at 100 μM”. At Uba1, the IC50 was 53.8 µM and the “inhibition of Uba1∼ubiquitin thioester formation” value was “inhibit”.

For `O=C(O)c1ccc(-c2c3ccc(=O)cc-3oc3cc(O)ccc23)cc1` [NSC 119891, 4-(3-hydroxy-6-oxoxanthen-9-yl)benzoic acid], the IC50 with HeLa cells was 208 µM; at Uba1 it was > 100 µM. Also, at Mms2–Ubc13, the “Mms2–Ubc13∼Ub inhibition on gel” value is reported as “No inhibition on gel at 100 μM”.

Turning to `O=C(O)C1CC=CCC1c1c2ccc(=O)cc-2oc2cc(O)ccc12` (stereo not drawn) [NSC 157411, 6-(3-Hydroxy-6-oxo-xanthen-9-yl)cyclohex-3-ene-1-carboxylic acid], the IC50 amounted to 428 µM in the assay on HeLa cells, 8.44 µM in the assay with PCNA ubiquitination and 24.8 µM against Uba1. In addition, at Mms2–Ubc13, the “Mms2–Ubc13∼Ub inhibition on gel” value is recorded as “No inhibition on gel at 100 μM”. Further, the “inhibition of Uba1∼ubiquitin thioester formation” value at Uba1 is recorded as “inhibit”.
